In PubChem BioAssay (NCI):
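Following 48 hours of exposure in 96-well plates, responses at five concentrations were used to interpolate endpoints linearly. The concentration for 50% growth inhibition is given as GI50. TGI is the concentration that stops growth completely.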

What was measured:
Assay in all cases: growth of human tumour cells (NCI), 48 h
[1] = test system: RXF 393 renal
[2] = test system: LOX IMVI melanoma
[3] = test system: SF-295 CNS
[4] = test system: HL-60(TB) leukemia
[5] = test system: MDA-MB-231 breast
[6] = test system: MOLT-4 leukemia
[7] = test system: COLO 205 colon
[8] = test system: NCI-H522 lung
[9] = test system: OVCAR-8 ovarian
[10] = test system: SK-MEL-5 melanoma

SMILES | TGI [1] | TGI [2] | TGI [3] | TGI [4] | TGI [5] | TGI [6] | TGI [7] | TGI [8] | TGI [9] | TGI [10] | GI50 [1] | GI50 [2] | GI50 [3] | GI50 [4] | GI50 [5] | GI50 [6] | GI50 [7] | GI50 [8] | GI50 [9] | GI50 [10]
O=C1OC(C2Cc3ccccc3C2=O)c2ccccc21 (centres undefined) | > 100 µM | > 100 µM | > 100 µM | > 100 µM | > 100 µM | > 100 µM | > 100 µM | > 100 µM | > 100 µM | > 100 µM |  |  |  |  |  |  |  |  |  | 
O=C(O)C(F)(F)C(F)(F)C(F)(F)C(F)(F)C(=O)O | > 100 µM | > 100 µM | > 100 µM | > 100 µM | > 100 µM |  | > 100 µM | > 100 µM | > 100 µM | > 100 µM |  |  |  |  |  |  |  |  |  | 
CN1[C@@H]2CCCC[C@H]2N(C)P1(=O)C(O)/C=C/c1ccccc1 (some centres undefined) | > 100 µM | > 100 µM | > 100 µM | > 100 µM | > 100 µM | > 100 µM | > 100 µM | > 100 µM | > 100 µM | > 100 µM |  |  |  |  |  |  |  |  |  | 
COc1ccc2c(c1)c(=O)c1c(NCCCN(C)CCCNc3ccc4c(=O)n(CCN(C)C)c(=O)n5c6ccc(OC)cc6c(=O)c3c45)ccc3c(=O)n(CCN(C)C)c(=O)n2c31 | 0.602 µM | 0.161 µM | 3.48 µM | 0.963 µM | 2.56 µM | 0.118 µM | 0.803 µM | 0.544 µM | 2.65 µM | 0.813 µM |  |  |  |  |  |  |  |  |  | 
O=C1c2n[nH]nc2C(=O)c2n[nH]nc21 | > 100 µM | > 100 µM | > 100 µM | > 100 µM | > 100 µM | > 100 µM | > 100 µM | > 100 µM | > 100 µM | > 100 µM |  |  |  |  |  |  |  |  |  | 
CSc1nc2c(c(=O)n1C)N=C(c1ccc(Cl)cc1)CC(c1ccccc1)N2 (centres undefined) | 75.4 µM | 54.3 µM | 53.1 µM | 62.4 µM | 27.3 µM | 53.9 µM | 39.2 µM | 47.9 µM | > 100 µM | 33.7 µM |  |  |  |  |  |  |  |  |  | 
CC1(C)CC(=O)C2=C(C1)NC(SCC(=O)O)=C(C#N)C2c1ccc(Br)cc1 (centres undefined) | > 100 µM | > 100 µM | > 100 µM | > 100 µM | > 100 µM |  | > 100 µM | > 100 µM | > 100 µM | > 100 µM |  |  |  |  |  |  |  |  |  | 
COc1ccc(C2c3cc4c(cc3OC(NNC(N)=O)C2C)OCO4)cc1 (centres undefined) | 54.5 µM | > 100 µM | 21.1 µM | 5.22 µM | > 100 µM | 74.5 µM | 15 µM | 18.3 µM | > 57.9 µM | > 63.2 µM |  |  |  |  |  |  |  |  |  | 
O=C(Nc1ccc(-n2cc(-c3ccncc3)c(-c3ccc(O)c(Cl)c3)n2)cc1)c1cc(Cl)cc(Cl)c1 | 1.13 µM | > 32.5 µM | 5.3 µM | > 32.5 µM | 1.45 µM | > 32.5 µM | > 32.5 µM | > 32.5 µM | > 32.5 µM | 6.85 µM | 575 nM | 853 nM | 1050 nM | 1600 nM | 647 nM | 1290 nM | > 32.5 µM | 1030 nM | 1660 nM | 877 nM
Cc1ccc2ccc(=O)oc2c1 | > 100 µM | > 100 µM | > 100 µM | > 100 µM | > 100 µM | > 100 µM | > 100 µM | > 100 µM | > 100 µM | > 100 µM |  |  |  |  |  |  |  |  |  | 
NC(Cc1ccccc1)=NCC(=O)O | > 100 µM | > 100 µM | > 100 µM | > 100 µM | > 100 µM | > 100 µM | > 100 µM | > 100 µM | > 100 µM | > 100 µM |  |  |  |  |  |  |  |  |  | 
OC12C3C4CC5C(C4[C@@H]1Br)C2[C@@](O)(c1c(F)c(F)c(F)c(F)c1F)C53 (some centres undefined) | 94.3 µM | > 100 µM | 76.8 µM | > 100 µM | > 100 µM | > 100 µM | > 100 µM | > 100 µM | > 100 µM | 59.3 µM |  |  |  |  |  |  |  |  |  | 
O=C(O)CCC(C(=O)O)N1C(=O)c2ccccc2C1=O (centres undefined) | > 100 µM | > 100 µM | > 100 µM | > 100 µM | > 100 µM |  | > 100 µM | > 100 µM | > 100 µM | > 100 µM |  |  |  |  |  |  |  |  |  | 
Cc1c(C)c2c(c(N)c1C#N)C(=O)N(OS(=O)(=O)c1ccccc1)C2=O | 30.7 µM | 55.1 µM | > 100 µM | > 100 µM | > 100 µM | 87 µM | 45.3 µM | 34 µM | 38.6 µM | > 100 µM |  |  |  |  |  |  |  |  |  | 
O=C1C=C(N2CCCC2)C(=O)c2c(O)ccc(O)c21 | > 10 µM | > 10 µM | > 10 µM | > 10 µM | > 10 µM | > 10 µM |  |  | > 10 µM | > 10 µM |  |  |  |  |  |  |  |  |  | 
COc1ccc(/C=C2\Sc3nnc(C)n3N=C2c2cc(F)c(Cl)cc2Cl)cc1OC | 32.7 µM | 31.4 µM | 53.6 µM | 96.4 µM | 79.8 µM | > 100 µM | 54.3 µM | 38.7 µM | 37.9 µM | 36.2 µM |  |  |  |  |  |  |  |  |  | 
O=c1[nH]nc(Cc2ccccc2)n1/N=C/c1ccc([N+](=O)[O-])o1 | 7.94 µM | > 100 µM | 36.2 µM | > 100 µM | 18.4 µM | > 100 µM | > 100 µM | 3.87 µM | 19.2 µM |  |  |  |  |  |  |  |  |  |  | 
CC(=O)N1CC(C)(C)c2c1cc(C)c(O)c2C | > 100 µM | > 100 µM | > 100 µM | > 100 µM | > 100 µM | > 100 µM | > 100 µM | > 100 µM | > 100 µM | > 100 µM |  |  |  |  |  |  |  |  |  | 
CCOC(=O)c1[nH]cnc1/N=N/N(C)N | > 100 µM | > 100 µM | > 100 µM | 68.6 µM | > 100 µM | > 100 µM | > 100 µM | 78.7 µM | > 100 µM | > 100 µM |  |  |  |  |  |  |  |  |  | 
COC(=O)c1ccc(CCC2=CC(=O)C(Br)=CC2=O)cc1 | 32.3 µM | 33.3 µM | 37.4 µM | 5.2 µM | 38.7 µM | 7.32 µM | 18.7 µM | 10.5 µM | 32 µM | 24.6 µM |  |  |  |  |  |  |  |  |  | 
